Source: publication PMC11904984, “The Gut Microbiota‐Xanthurenic Acid‐Aromatic Hydrocarbon Receptor Axis Mediates the Anticolitic Effects of Trilobatin” (Advanced Science, 2025)
pKd: −log10 of the molar value.

Biological target: T1, aromatic hydrocarbon receptor (AhR) (Homo sapiens, UniProt P35869)
T1 construct: His-tagged recombinant human AhR (MST); recombinant human AhR (SPR)
T1 sequence (P35869 11-848): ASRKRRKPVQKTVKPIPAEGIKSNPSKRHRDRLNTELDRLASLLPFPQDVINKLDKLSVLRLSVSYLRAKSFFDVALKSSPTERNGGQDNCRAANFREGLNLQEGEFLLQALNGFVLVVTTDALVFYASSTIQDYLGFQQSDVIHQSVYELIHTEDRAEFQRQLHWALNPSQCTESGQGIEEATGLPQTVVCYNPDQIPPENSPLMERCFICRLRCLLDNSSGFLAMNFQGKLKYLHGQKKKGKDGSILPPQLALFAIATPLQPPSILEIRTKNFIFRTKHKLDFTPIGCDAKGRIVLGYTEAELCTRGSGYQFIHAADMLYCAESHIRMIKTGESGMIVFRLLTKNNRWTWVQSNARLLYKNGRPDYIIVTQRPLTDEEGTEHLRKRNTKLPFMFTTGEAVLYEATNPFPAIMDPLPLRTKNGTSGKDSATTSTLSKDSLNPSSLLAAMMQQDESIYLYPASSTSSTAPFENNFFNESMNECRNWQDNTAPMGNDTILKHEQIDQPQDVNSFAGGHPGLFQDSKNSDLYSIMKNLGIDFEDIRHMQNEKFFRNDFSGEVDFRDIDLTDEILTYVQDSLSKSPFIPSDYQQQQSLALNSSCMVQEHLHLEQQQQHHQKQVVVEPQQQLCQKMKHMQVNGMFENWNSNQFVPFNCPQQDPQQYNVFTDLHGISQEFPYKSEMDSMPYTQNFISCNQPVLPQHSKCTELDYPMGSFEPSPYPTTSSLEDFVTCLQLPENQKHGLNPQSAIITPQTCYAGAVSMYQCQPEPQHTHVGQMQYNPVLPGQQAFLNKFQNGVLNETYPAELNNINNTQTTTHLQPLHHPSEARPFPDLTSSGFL
Test: SPR (Biacore, CM5 chip, immobilized AhR); also MST, KD […]
Assay type: binding

- pKd: 4.99
SMILES: O=C(CCc1ccc(O)cc1)c1c(O)cc(O[C@@H]2O[C@H](CO)[C@@H](O)[C@H](O)[C@H]2O)cc1O [TLB, Trilobatin]
